Experimental data taken from patent US20230141863A1, “Small Molecule Inhibitors Targeting the Sodium Channel Tamoxifen Receptor and Uses Thereof” (Northwestern University, priority 2021, published 2023).

How the values were obtained:
[1] = test system: T1, endogenous voltage-gated sodium channels expressed in murine DRG neurons; experiment: Whole cell voltage clamp of endogenous sodium currents (INa) in cultured DRG sensory neurons; format: cell-based, mouse; conditions: for voltage dependence of INa inhibition (in words): −60 mV versus −100 mV holding potential
T1 construct: other: waiting for 5 minutes after removal; ND-Tam potency against DRG INa (IC50); other: DRG neurons, −60 mV holding potential; other: 3 μM ND-Tam treatment; other: DR
Procedure: FIG. 1. Tamoxifen metabolites inhibit endogenous voltage-gated sodium channels expressed in murine DRG neurons. A) DIC and fluorescence images of voltage clamped DRG neuron isolated and cultured from an Nav1.8-tomato mouse. Continuity with the patched neuron is indicted by the GFP (Alexa Fluor 488 dye 1 nM) loaded into the glass patch electrode. B) Top, exemplar sodium currents (INa) recorded in control saline and two concentrations of N-desmethyl tamoxifen (ND-Tam) from a voltage-clamped DRG neuron. INa was activated by 0.2 Hz train of 50 ms depolarizations to −10 mV from −100 mV holding potential. Bottom, time course of peak INa inhibition during control conditions and after 5 minutes of extracellular ND-Tam treatment. C) Resulting drug concentration-INa inhibition relationship for ND-Tam fit to the Hill equation. Open symbols represent responses from individual cells and filled symbols represent average response per concentration. Error is equal to S.E.M. (n=11) D) A comparison of the percent INa recovery after 3-10 μM ND-Tam or 1 mM carbamazepine (CBZ) inhibition. INa recovery was assessed after 5 minutes in control saline post drug exposure. Fewer INa recovered from ND-Tam exposure compared to CBZ exposure, 14.3±5.4% and 47.2±9.6%, respectively, and was statistically significant (P=0.03). Error is equal to S.E.M. and the number of cells tested per treatment group is indicated within the parentheses.
Previously, a unique receptor site for tamoxifen analogues within the prokaryotic sodium channel isolated form Magnetococcus marinus (NavMs)^36 (Sula et al) was crystallographically identified. Because drug occupancy of this receptor caused long lasting inhibition of the NavMs INa, the inventors wondered if these properties would translate into effects against sensory neuron Na s which transmit pain signals. Accordingly, =the potency of ND-Tam and 4OH-Tam was tested against endogenously expressed Na s in cultured DRG sensory neurons isolated from Nav1.8-tdTomato mice by conducting whole cell voltage clamp recordings (FIG. 1A, B). Sodium currents were activated by a 0.2 Hz train of −10 mV depolarizations from a holding potential of −100 mV. The externally applied drug effect was determined after three to five minutes of application of each drug concentration (FIG. 1B). […] As discussed in the introduction, total DRG INa is conducted by the Nav1.1, Nav1.6, Nav1.7, Nav1.8 and Nav1.9 subtypes. To determine if there is any specificity in the potency of tamoxifen analogues against Nav subtypes, human orthologues were heterologously expressed in cell lines (HEK and CHO co-expressing hb1 subunits), and conducted voltage-clamp experiments, as previously performed in the DRG neurons.
Dorsal root ganglia were isolated using a modified version of the previously described protocol (PMID: 26864470). All animal procedures were approved by the Institutional Animal Care and Use Committee at the Feinberg Medical School, Northwestern University. The spinal columns of 4-6-week-old […] or Nav1.8-Tomato mice (Nav1.8-Td) were removed and DRG neurons from all spinal levels were isolated for primary culture (PMID: 33827672, PMID: 31351964). The collected DRGs, containing both neuronal and non-neuronal cells, were acutely dissociated in DMEM with collagenase IV (2 mg/mL) for 30 minutes, followed by papain (25 U/mL) for 30 minutes. The cells were then triturated, filtered through a 40 μm cell strainer to remove non-dissociated cells, and washed with DMEM. The DRGs were resuspended in 70 μL of pre-warmed growth medium (DMEM F12+Glutamax supplemented with 0.5% FBS, 0.5% penicillin/streptomycin, 1% N-2 supplement, and β-NGF ([…]) added on the day of use) and plated on poly-l-lysine (10 mg/mL) and laminin (25 μg/mL) prepared coverslips. The DRGs were incubated at 37° C. for 2-4 hours before more growth medium was added to the wells. […]

[2] = test system: mice with knee hyperalgesia post DMM surgery; experiment: In vivo osteoarthritis pain model (DMM), knee hyperalgesia after intra-articular injection; set-up: species or system mouse; conditions: 50 μM intra-articular, vehicle 0.1% DMSO; for knee hyperalgesia versus vehicle, direct comparison study (in words): 30 minutes after injection; for knee withdrawal threshold versus vehicle control (in words): through 3 hours after injection
[3] = test system: mice with knee hyperalgesia post DMM surgery; conditions: 20 mg/kg, ~0.85M, PMID: 29563338; cited from earlier work
[4] = target: T2, human Nav1.7 (Homo sapiens, UniProt Q15858); experiment: Voltage clamp of heterologously expressed Nav1.7; format: cell-based; conditions: Hill fit, printed for ND-Tam and 4OH-Tam together
T2 construct: expressed in transfected cells; host or cells: HEK cells, transient transfection with lipofectamine
T2 sequence (Q15858 whole entry): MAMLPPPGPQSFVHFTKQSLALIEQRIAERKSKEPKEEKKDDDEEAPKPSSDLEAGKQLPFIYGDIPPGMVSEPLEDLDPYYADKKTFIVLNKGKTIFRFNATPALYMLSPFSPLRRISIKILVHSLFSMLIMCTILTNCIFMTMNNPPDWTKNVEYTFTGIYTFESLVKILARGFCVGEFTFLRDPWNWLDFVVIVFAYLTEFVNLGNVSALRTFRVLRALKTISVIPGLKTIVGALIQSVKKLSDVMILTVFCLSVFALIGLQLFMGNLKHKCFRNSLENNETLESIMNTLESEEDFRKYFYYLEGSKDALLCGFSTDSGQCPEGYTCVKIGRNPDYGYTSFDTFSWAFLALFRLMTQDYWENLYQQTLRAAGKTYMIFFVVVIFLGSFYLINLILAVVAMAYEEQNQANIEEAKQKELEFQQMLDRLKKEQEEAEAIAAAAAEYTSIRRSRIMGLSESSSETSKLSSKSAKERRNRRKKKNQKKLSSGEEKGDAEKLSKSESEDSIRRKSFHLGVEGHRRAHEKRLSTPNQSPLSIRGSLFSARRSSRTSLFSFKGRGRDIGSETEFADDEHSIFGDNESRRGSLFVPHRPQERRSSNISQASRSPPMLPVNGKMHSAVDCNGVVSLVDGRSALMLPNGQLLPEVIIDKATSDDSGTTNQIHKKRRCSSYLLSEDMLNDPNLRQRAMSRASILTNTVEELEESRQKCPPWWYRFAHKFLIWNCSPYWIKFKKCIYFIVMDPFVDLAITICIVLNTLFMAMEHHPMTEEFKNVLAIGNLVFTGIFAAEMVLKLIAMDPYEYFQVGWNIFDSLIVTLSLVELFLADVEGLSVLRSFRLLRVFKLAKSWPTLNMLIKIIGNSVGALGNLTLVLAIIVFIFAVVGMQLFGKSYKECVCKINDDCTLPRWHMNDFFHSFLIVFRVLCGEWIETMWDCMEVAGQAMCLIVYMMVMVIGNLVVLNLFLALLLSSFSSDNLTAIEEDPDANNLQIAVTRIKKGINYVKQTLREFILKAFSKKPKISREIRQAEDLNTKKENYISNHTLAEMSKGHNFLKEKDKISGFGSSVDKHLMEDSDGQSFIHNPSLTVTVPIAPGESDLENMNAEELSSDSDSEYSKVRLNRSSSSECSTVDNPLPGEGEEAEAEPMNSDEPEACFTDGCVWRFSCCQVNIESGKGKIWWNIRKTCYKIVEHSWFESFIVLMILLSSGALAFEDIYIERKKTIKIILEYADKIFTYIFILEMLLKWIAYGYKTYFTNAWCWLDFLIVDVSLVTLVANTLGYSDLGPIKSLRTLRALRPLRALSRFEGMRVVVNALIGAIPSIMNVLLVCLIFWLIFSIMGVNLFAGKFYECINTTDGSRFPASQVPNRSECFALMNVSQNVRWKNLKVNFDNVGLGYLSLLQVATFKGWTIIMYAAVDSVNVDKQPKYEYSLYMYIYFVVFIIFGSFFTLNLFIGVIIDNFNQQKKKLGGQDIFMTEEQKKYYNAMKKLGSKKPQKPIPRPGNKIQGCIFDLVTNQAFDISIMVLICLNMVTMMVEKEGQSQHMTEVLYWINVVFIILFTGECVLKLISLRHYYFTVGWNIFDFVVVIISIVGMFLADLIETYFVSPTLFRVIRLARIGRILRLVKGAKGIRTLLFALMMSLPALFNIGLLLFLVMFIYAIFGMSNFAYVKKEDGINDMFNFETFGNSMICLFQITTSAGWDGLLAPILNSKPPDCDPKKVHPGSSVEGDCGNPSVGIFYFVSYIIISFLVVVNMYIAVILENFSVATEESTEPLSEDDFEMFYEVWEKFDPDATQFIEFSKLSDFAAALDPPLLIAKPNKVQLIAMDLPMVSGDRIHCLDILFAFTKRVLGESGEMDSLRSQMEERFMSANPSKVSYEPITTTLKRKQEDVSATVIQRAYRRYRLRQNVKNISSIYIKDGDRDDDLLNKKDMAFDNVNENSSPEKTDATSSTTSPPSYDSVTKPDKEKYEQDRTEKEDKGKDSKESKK
Procedure: While no clear drug-receptor interactions were determined within Siteout, the S6 E220 side chains formed hydrogen bond interactions with the ether and amine moieties of the ND-Tam molecules found at Sitein. […] After structural alignment of the crystalized NavMs-Tam complex with the cryo EM Nav1.7+b1+b2 channel coordinates, the S6 side chain hydroxyl in DII (S969) and the carboxyl side chains in DIII (E1458) and DIV (D1761) observed in the human channel were nearly superimposable with E220 of the prokaryotic Nav subunits. In addition, the distances from the drug ether and amines were within acceptable distances (2.8-3.1 Å) for hydrogen bond formation for all three site chains (FIG. 2B). […]
Plasmids encoding the human version of channels Nav1.1, 1.6, and 1.7 were co-transfected with TRES GFP into HEK cell lines for whole-cell voltage clamp studies (American Type Culture Collection). […] Plasma membrane currents were recorded using borosilicate glass electrodes polished to resistances of […]. Sodium currents conducted by heterologously expressed Navs were recorded using the following solutions (in mM). […] Endogenous DRG sodium currents were recorded using an intracellular solution consisting of 70 CsCl, 70 CsF, 2 EGTA, 5 HEPES, and 5 NaCl; the pH was adjusted to 7.4 with CsOH. […]

IC50 ([1]; DRG neurons, −100 mV holding potential, 0.2 Hz train of −10 mV depolarizations, read-out: half maximal potency of INa inhibition (IC50)) | slope of concentration-dependence [4] | SMILES | voltage dependence of INa inhibition (in words) [1] | knee hyperalgesia versus vehicle, direct comparison study (in words) [2] | knee withdrawal threshold versus vehicle control (in words) [2] | knee hyperalgesia after local injection of a relatively high dose (in words) [3] | inhibition of sodium currents recorded from DRG neurons (in words) ([1]; tamoxifen analogs and fragments, FIG. 7B)
 |  | C=C(C)[C@@H]1CCC(C)=C[C@H]1c1c(O)cc(CCCCC)cc1O [CBD, cannabidiol, reference compound] | followed this trend | effectively inhibited knee hyperalgesia | remained elevated compared to vehicle control through 3 hours after injection |  | 
 |  | CCN(CC)CC(=O)Nc1c(C)cccc1C [lidocaine, reference compound] | most potent when membranes were held at −60 mV | effectively inhibited knee hyperalgesia | remained elevated compared to vehicle control through 3 hours after injection | able to acutely reverse knee hyperalgesia | 
 |  | NC(=O)N1c2ccccc2C=Cc2ccccc21 [CBZ, carbamazepine, reference compound] | most potent when membranes were held at −60 mV |  |  |  | 
3.3 µM | 2.1 | CC/C(=C(\c1ccc(O)cc1)c1ccc(OCCN(C)C)cc1)c1ccccc1 [4OH-Tam, 4-[(Z)-1-[4-[2-(dimethylamino)ethoxy]phenyl]-2-phenylbut-1-enyl]phenol] |  |  |  |  | inhibited sodium currents
